How the values were obtained:
Test in all cases: Dundee kinase panel
Assay type in all cases: biochemical
Conditions in all cases: for remaining activity at 1 µM: read-out: residual activity
[1] = target: T1, EPH-B1 (Homo sapiens, UniProt P54762)
T1 construct: lines 1-140) and Reaction Biology
T1 sequence (P54762 18-984): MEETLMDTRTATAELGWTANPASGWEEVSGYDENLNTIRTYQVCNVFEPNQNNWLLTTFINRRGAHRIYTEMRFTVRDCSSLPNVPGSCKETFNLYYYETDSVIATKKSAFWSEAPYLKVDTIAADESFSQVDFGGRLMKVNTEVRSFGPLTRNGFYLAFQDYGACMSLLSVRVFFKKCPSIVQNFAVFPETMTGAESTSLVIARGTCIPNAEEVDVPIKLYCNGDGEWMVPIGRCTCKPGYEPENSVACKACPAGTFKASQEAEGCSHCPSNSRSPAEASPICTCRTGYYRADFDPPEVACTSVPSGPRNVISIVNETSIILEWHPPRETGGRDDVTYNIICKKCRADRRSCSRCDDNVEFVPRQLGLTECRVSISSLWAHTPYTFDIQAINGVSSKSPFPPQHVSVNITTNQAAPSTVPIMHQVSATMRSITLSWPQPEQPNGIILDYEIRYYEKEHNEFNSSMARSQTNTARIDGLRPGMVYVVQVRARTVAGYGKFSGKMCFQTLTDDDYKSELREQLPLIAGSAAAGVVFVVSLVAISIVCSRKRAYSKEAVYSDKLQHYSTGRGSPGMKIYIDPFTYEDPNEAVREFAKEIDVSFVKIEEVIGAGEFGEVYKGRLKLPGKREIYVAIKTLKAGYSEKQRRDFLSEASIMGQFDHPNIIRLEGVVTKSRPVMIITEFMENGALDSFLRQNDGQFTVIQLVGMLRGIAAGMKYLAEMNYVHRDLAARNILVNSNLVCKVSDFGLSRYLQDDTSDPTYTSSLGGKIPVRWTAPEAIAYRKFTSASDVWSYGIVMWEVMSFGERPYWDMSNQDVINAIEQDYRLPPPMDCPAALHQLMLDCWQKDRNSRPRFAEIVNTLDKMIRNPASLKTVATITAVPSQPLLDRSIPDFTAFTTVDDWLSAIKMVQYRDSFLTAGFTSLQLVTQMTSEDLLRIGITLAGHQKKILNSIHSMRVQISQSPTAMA
Procedure: (§1) Compounds were screened at 1 μM. For key hits, pIC50 values were then determined by HTRF as above. […] Stability in mouse and human liver microsomes was determined by Cyprotex.

[2] = target: T2, PAK6 (Homo sapiens, UniProt Q9NQU5)
T2 construct: lines 1-140) and Reaction Biology
T2 sequence (Q9NQU5 whole entry): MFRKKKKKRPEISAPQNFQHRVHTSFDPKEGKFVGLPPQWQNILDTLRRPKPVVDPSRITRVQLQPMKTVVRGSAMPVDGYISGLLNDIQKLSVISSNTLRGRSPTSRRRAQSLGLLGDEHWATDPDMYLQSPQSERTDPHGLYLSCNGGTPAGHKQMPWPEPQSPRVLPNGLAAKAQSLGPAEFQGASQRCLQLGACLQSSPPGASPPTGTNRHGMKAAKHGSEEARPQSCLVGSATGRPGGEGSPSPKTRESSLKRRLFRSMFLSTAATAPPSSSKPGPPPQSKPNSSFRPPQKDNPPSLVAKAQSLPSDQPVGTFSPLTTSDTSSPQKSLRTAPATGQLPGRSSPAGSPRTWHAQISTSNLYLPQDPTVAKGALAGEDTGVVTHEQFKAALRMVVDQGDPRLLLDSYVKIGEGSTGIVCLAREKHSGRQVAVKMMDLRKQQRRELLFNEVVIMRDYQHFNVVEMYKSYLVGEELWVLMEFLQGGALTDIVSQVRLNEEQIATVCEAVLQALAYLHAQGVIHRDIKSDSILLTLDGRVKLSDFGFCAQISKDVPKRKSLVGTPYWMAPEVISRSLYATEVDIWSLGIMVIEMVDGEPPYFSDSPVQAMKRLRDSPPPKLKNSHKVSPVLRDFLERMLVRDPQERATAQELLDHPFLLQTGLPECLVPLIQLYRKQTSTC
Procedure: as §1

[3] = target: T3, ERK1 (Homo sapiens, UniProt P27361)
T3 construct: lines 1-140) and Reaction Biology
T3 sequence (P27361 whole entry): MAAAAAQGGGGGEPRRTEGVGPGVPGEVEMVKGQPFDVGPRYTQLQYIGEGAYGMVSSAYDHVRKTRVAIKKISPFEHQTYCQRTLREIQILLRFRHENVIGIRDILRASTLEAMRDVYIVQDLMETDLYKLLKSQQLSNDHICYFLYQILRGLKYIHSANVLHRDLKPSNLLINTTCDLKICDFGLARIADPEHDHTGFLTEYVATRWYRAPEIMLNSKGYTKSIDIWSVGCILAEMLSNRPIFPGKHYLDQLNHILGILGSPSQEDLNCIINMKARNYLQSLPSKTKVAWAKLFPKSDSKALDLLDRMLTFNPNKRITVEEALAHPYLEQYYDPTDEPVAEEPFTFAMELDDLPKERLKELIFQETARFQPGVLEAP
Procedure: as §1

[4] = target: T4, MAPKAP-K2 (Homo sapiens, UniProt P49137)
T4 construct: lines 1-140) and Reaction Biology
T4 sequence (P49137 whole entry): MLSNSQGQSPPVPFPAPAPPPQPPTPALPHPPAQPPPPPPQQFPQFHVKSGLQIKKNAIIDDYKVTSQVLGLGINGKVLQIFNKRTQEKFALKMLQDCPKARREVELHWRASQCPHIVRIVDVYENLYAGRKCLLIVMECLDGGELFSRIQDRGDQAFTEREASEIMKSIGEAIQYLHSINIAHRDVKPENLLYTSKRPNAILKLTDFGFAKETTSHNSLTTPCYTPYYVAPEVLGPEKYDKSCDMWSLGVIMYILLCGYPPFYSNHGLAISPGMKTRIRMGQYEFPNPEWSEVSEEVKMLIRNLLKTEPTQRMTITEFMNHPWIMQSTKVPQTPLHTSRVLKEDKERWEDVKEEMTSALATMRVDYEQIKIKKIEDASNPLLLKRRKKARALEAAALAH
Procedure: as §1

[5] = target: T5, MKK6 (Homo sapiens, UniProt P52564)
T5 construct: lines 1-140) and Reaction Biology
T5 sequence (P52564 1-334): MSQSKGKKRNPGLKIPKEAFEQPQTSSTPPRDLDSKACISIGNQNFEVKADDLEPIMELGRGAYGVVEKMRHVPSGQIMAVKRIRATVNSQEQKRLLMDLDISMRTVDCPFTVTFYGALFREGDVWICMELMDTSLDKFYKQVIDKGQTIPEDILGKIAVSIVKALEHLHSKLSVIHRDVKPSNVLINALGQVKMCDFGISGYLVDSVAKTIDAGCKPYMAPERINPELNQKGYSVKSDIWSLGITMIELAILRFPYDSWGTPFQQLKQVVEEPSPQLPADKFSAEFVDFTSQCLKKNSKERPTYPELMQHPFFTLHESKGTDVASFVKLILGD
Procedure: as §1

[6] = target: T6, CHK1 (Homo sapiens, UniProt O14757)
T6 construct: lines 1-140) and Reaction Biology
T6 sequence (O14757 1-476): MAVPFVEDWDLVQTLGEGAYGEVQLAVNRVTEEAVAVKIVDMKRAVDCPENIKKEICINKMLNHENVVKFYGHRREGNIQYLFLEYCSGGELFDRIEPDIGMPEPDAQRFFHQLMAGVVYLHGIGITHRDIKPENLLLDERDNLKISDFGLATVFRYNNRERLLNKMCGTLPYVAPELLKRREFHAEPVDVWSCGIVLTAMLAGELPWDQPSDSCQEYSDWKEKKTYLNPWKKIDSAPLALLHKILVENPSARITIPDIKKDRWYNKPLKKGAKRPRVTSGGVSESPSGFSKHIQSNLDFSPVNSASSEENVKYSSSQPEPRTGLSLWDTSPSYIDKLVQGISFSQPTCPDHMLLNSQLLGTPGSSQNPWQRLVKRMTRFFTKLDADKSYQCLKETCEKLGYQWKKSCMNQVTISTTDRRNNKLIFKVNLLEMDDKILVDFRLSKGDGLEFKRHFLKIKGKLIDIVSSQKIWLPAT
Procedure: as §1

[7] = target: T7, CDK9-Cyclin T1 (Homo sapiens, UniProt P50750)
T7 construct: lines 1-140) and Reaction Biology
T7 sequence (P50750 whole entry): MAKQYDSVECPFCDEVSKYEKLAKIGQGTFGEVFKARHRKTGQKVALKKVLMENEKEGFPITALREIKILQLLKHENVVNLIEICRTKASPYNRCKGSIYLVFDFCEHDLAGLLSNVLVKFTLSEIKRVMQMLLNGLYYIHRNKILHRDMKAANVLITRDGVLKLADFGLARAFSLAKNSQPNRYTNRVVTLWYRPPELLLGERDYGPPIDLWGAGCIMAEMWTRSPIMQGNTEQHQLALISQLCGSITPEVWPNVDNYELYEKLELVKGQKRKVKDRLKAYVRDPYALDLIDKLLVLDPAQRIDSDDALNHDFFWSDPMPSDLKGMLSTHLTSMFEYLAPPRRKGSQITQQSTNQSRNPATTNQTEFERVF
T7 sequence (O60563 whole entry partner): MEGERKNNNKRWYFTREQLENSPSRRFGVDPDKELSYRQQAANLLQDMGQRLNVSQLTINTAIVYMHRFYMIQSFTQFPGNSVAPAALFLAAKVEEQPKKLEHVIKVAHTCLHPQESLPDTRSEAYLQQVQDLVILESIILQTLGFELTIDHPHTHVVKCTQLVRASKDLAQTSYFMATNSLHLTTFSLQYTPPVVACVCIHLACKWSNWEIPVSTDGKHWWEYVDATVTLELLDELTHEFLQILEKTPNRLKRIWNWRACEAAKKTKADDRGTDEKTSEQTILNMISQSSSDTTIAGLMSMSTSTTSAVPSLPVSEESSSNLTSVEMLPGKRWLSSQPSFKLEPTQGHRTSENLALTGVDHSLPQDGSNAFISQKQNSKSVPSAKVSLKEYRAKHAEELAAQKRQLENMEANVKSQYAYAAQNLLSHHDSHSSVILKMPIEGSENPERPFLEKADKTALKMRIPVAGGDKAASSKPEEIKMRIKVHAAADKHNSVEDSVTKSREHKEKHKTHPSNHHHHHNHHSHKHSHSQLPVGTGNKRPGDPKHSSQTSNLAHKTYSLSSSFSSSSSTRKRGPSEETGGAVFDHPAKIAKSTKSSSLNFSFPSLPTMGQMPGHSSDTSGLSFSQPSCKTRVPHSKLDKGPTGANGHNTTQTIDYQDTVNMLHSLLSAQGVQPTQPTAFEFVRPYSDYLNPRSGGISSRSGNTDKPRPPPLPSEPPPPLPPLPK
Procedure: as §1

[8] = target: T8, NEK2a (Homo sapiens, UniProt P51955)
T8 construct: lines 1-140) and Reaction Biology
T8 sequence (P51955 1-445): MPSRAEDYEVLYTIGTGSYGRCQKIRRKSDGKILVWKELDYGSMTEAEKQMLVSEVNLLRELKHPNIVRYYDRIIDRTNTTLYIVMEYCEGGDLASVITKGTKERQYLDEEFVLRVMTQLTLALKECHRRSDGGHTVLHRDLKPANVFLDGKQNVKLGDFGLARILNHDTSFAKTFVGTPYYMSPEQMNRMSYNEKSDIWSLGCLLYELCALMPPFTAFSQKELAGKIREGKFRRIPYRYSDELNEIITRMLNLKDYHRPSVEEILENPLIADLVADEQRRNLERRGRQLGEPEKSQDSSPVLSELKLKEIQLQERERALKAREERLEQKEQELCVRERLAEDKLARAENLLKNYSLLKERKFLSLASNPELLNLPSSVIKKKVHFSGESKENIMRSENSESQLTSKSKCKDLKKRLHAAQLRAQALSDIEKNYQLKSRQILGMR
Procedure: as §1

Compound	remaining activity at 1 µM [1] [%]	remaining activity at 1 µM [2] [%]	remaining activity at 1 µM [3] [%]	remaining activity at 1 µM [4] [%]	remaining activity at 1 µM [5] [%]	remaining activity at 1 µM [6] [%]	remaining activity at 1 µM [7] [%]	remaining activity at 1 µM [8] [%]	residual activity ([1]; 1 μM) [%]	residual activity ([2]; 1 μM) [%]	residual activity ([3]; 1 μM) [%]	residual activity ([4]; 1 μM) [%]	residual activity ([5]; 1 μM) [%]	residual activity ([6]; 1 μM) [%]	residual activity ([7]; 1 μM) [%]	residual activity ([8]; 1 μM) [%]
O=C1Nc2ccc(I)cc2/C1=C/c1cc(Br)c(O)c(Br)c1 [GW5074]	94	95	87	81	81	33	104	8								
Oc1ncnc2c1c(-c1ccccc1)cn2-c1ccccc1 [F1386-0303, 5,7-diphenyl-7H-pyrrolo[2,3-d]pyrimidin-4-ol]	86	105	124	101	105	98	88	108								
O=C1Cc2c([nH]c3ccc(Br)cc23)-c2ccccc2N1 [Kenpaullone]	94	32	78	89	102	68	22	89								
COCCOc1ccc(-c2cn(-c3ccccc3)c3nc[nH]c(=O)c23)cc1 [DMX-5804, 5-[4-(2-methoxy-ethoxy)-phenyl]-7-phenyl-3,7-dihydro-pyrrolo[2,3-d]pyrimidin-4-one]	108	118	107	105	112	86	113	106								
Nc1ncc(C(=O)NC2CN(C(=O)C3CC3)C2)c2ccc(-c3cccc(F)c3)nc12 [GNE-495]									99	64	143	101	97	93	78	85

From article PMC6458995, “MAP4K4 Inhibition Promotes Survival of Human Stem Cell-Derived Cardiomyocytes and Reduces Infarct Size In Vivo” (Cell Stem Cell, 2019)
